In paper PMC8406801, “Naringenin Inhibits Platelet Activation and Arterial Thrombosis Through Inhibition of Phosphoinositide 3-Kinase and Cyclic Nucleotide Signaling” (Frontiers in Pharmacology, 2021):
Where “and” joins values, the source holds several entries; their conditions need not be identical. Equal values may be shown once.

Legend:
[1] = test system: carotid arterial thrombus; assay: FeCl3-induced carotid arterial thrombus model in rats; assay type: in vivo, rat; details: oral 7.875 mg/kg for 7 days
Protocol: To determine the effects of naringenin on thrombogenesis, a FeCl3-induced carotid arterial thrombus model was performed as reported previously with some modifications ([Eckly et al., 2011]). […] The rats were anaesthetized using 1% pentobarbital sodium salt and fixed supinely after the last administration. The left carotid artery was exposed and thrombosis was induced by applying a Whatman filter paper (5 mm × 1 mm) saturated with 10% (w/v) FeCl3 on the top of the left carotid artery for 5 min. […] Time to occlusion of the carotid artery was defined as a blood flow of 0 ml/min for 3 min. […] At the end of the experiment, the left carotid artery was dissected. A haematoxylin and eosin stain was performed on the artery.

PI3Kp110β = assay: Ex vivo immunoblotting of PI3Kp110β in ADP-stimulated PRP of treated rats; set-up: species or system rat; details: clopidogrel group, ex vivo; Figure 8B
Protocol: (§1) Male SD rats were randomly divided into 5 groups with 6 rats in each group. […] Sixty minutes after the last sample treatment, blood was drawn from the abdominal aorta of rats into the siliconized vacutainers containing 1:9 (v/v) 3.8% sodium citrate. The collected blood was centrifuged at 100 × g for 10 min at room temperature to obtain PRP. […] The platelet counts of PRP were adjusted to 4×10^8 cells/mL using PPP. PRP was incubated for 5 min at 37°C and then stimulated by ADP (5 μM). The maximum platelet aggregation rate was determined as mentioned above.
(§2) For in vitro platelet aggregation, aliquots of washed platelets were preincubated with vehicle or various concentrations of naringenin for 5 min and stimulated with ADP (10 μmol/L) under stirring at 37°C for 5 min. For ex vivo platelet aggregation, PRP was incubated at 37°C for 5 min and stimulated with ADP (5 μmol/L) under stirring at 37 °C. The platelet aggregation was terminated by adding ethylenediaminetetraacetic acid (EDTA; 10 mM). Total protein was prepared using RIPA lysis buffer and protein content was determined by bicinchoninic acid (BCA) protein assay kit. Equal amounts of platelet proteins (30 μg) were separated on 10% SDS polyacrylamide gel electrophoresis (SDS-PAGE) and then transferred to poly vinylidene difluoride (PVDF) membranes and subjected to western blot. Blots were blocked with TBS-Tween 20 containing 5% BSA and probed with primary antibodies diluted in blocking solution at 4°C overnight followed by incubation with the corresponding HRP secondary antibodies. The protein bands were visualized using enhanced chemiluminescence (ECL).
(§3) Blood was collected and PRP was obtained after the last treatment. Platelet aggregation was induced by ADP (5 μmol/L) (A). Data are expressed as means ± SD (n = 6). After ADP stimulation, platelet proteins were then extracted and analyzed by immunoblotting using PI3Kp110β antibody (B) and phospho-specific antibodies such as Akt^Ser473 (C), Akt^Thr308 (D) and ERK1/2^Thr202/Tyr204 (E). Total level of GAPDH was measured on each sample as a loading control. The blots shown are representative of three separate experiments. The relative protein expression levels were quantified by ImageJ 1.47v software. The level of relative protein expression obtained with vehicle control was taken as 1. R represents the level of relative protein expression in resting platelets. Data are expressed as means ± SD (n = 3). *p < 0.05, **p < 0.01, ***p < 0.001 compared with the vehicle control group (Con).
(§4) To further investigate the antiplatelet mechanisms of naringenin ex vivo, several signaling molecules such as PI3Kp110β, Akt and ERK were detected. After oral administration of naringenin (200, 400, and 800 mg/kg) to rats for 7 days, rat PRP was prepared and stimulated by ADP (5 μmol/L), and platelets were lysed to determine protein phosphorylation levels using western blot.

[2] = test system: Akt Thr308 phosphorylation; assay: Ex vivo immunoblotting of phospho-Akt (Thr308) in ADP-stimulated PRP of treated rats; set-up: species or system rat; details: clopidogrel group, ex vivo; Figure 8D
Protocol: as §1, §2, §3, §4

tail bleeding = details: mouse, in vivo, po, 11.375 mg/kg
Protocol: Sixty minutes after the last administration, mice were anaesthetized with 1% pentobarbital sodium salt and placed on a 37°C heating pad. The tail was transected at a site 3 mm proximal to the tip and immediately immersed into saline kept at 37°C. The time to bleeding cessation (defined as no bleeding for 30 s) was measured. When the bleeding time lasted longer than 10 min, the bleeding was stopped, and the bleeding time was recorded as 10 min.

[3] = test system: Akt Ser473 phosphorylation; assay: Ex vivo immunoblotting of phospho-Akt (Ser473) in ADP-stimulated PRP of treated rats; set-up: species or system rat; details: clopidogrel group, ex vivo; Figure 8C
Protocol: as §1, §2, §3, §4

washed rat platelets = assay: ADP (10 μM)-induced aggregation of washed rat platelets; assay type: cell-based; details: Figure 5A: washed platelets, ADP 10 μM, LY294002 5 μM alone; single replicates
[4] = test system: Akt Ser473 phosphorylation; assay: Immunoblotting of phospho-Akt (Ser473) in ADP-stimulated washed platelets; assay type: cell-based, rat; details: Figure 5B: ADP 10 μM, LY294002 5 μM alone, single replicates
Protocol: as §2
FIGURE 4 Naringenin inhibits PI3K-mediated signaling in ADP-induced platelets. Washed rat platelets were preincubated without or with naringenin at 37°C for 5 min, and then stimulated with ADP (10 μmol/L) under stirring for 5 min. Platelet proteins were then extracted and analyzed by immunoblotting using PI3Kp110β antibody (A) and phospho-specific antibodies such as Akt^Ser473 (B), Akt^Thr308 (C), ERK1/2^Thr202/Tyr204 (D) and GSK3β^Ser9 (E). Total level of GAPDH was measured on each sample as a loading control. The blots shown are representative of three separate experiments. The relative protein expression levels were quantified by ImageJ 1.47v software. The level of relative protein expression obtained with vehicle control (0 μM) was taken as 1. R represents the level of relative protein expression in resting platelets. Data are expressed as means ± SD (n = 3). *p < 0.05, **p < 0.01, ***p < 0.001 compared with the vehicle control group.
FIGURE 5 Effects of naringenin combined with PI3K pan inhibitor LY294002 on platelet aggregation and Akt phosphorylation. Washed rat platelets were preincubated with naringenin (200 μmol/L) alone, the PI3K pan inhibitor LY294002 (5 μmol/L) alone or both for 5 min prior to ADP (10 μmol/L) activation. After stimulation with ADP, platelet aggregation was quantified and expressed as a percentage (A). Data are expressed as means ± SD (n = 6). ***p < 0.001 compared with the ADP-treated group, ^### p < 0.001 compared with naringenin alone or LY294002 alone. Platelet proteins were then extracted and specific antibodies were used to measure the level of total and phosphorylated Akt (B). The blots shown are representative of three separate experiments. The relative protein expression levels were quantified by ImageJ 1.47v software. The level of phosphorylation obtained in the ADP-treated group was taken as 1. Data are expressed as means ± SD (n = 3). ***p < 0.001 compared with the ADP-treated group, ^### p < 0.001 compared with naringenin alone or LY294002 alone.

Structure (SMILES) | vessel occlusion time of rats [1] | Occlusion time ([1]; 10% FeCl3, single animals, no occlusion within 20 min recorded as 20 min, 7.875 mg/kg) | PI3Kp110β / GAPDH (Fold to Control) (PI3Kp110β) | PI3Kp110β / GAPDH (raw data) (PI3Kp110β) | p-Akt Thr308 / t-Akt (Fold to Control) [2] | p-Akt Thr308 / t-Akt (raw data) [2] | effect on tail bleeding time (tail bleeding) | p-Akt Ser473 / t-Akt (Fold to Control) [3] | p-Akt Ser473 / t-Akt (raw data) [3] | Aggregation (%) (washed rat platelets) | p-Akt Ser473 / t-Akt ([4]; raw data) | p-Akt Ser473 / t-Akt (Fold to ADP only) [4]
COC(=O)[C@H](c1ccccc1Cl)N1CCc2sccc2C1 [Clopidogrel, clopidogrel, reference compound] | considerably delayed | 18.3 min and 20.0 min | 0.8304 and 0.8095 and 1.1247 | 0.4069 and 0.3966 and 0.5511 | 0.3303 and 0.3457 and 0.2827 | 0.2780 and 0.2909 and 0.2379 | markedly extended | 0.1574 and 0.1140 and 0.1683 | 0.1750 and 0.1267 and 0.1870 | – | – | –
O=c1cc(N2CCOCC2)oc2c(-c3ccccc3)cccc12 [LY294002, reference compound] | – | – | – | – | – | – | – | – | – | 47.5% and 35.4% and 37.3% and 29.8% and 45.4% and 28.0% | 0.3729 and 0.2624 and 0.3579 | 0.4284 Fold to ADP only and 0.3015 Fold to ADP only and 0.4113 Fold to ADP only
